Reference: patent US8129355B2, “Ketone ligands for modulating the expression of exogenous genes via an ecdysone receptor complex” (priority 2002, dated 2012)

Columns and labels:
[1] = biological target: T1, GAL4 DBD (1-147)-CfEcR(DEF)/VP16AD-βRXREF-LmUSPEF (Choristoneura fumiferana, UniProt O77240); assay: 27-63 assay: luciferase reporter gene expression in stable CHO cell clone 27-63; conditions: for Fold Induction Average, 27-63 Assay (33 μM): single dose 33 μM, RLU ligand treated / RLU DMSO treated cells; for 27-63 Rel Max FI: maximum fold induction at any concentration relative to that of GS-E ligand; for CC50: read-out: 27-63 LC50, average, dose response, three-parameter logistic model; for fold induction at 33 µM: CHO, read-out: Fold Induction Average, 27-63 Assay (33 μM)
T1 sequence (O77240 191-513): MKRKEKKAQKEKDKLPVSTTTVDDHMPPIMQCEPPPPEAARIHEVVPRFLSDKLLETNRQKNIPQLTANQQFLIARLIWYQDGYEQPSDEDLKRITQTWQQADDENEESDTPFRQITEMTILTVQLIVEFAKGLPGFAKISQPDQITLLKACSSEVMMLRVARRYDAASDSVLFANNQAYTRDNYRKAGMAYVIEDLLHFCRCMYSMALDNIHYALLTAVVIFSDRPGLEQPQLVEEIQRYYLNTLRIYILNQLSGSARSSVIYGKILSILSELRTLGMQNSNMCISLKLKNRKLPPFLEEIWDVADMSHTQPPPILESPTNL
T1 sequence (P28702 296-455 partner limits assumed): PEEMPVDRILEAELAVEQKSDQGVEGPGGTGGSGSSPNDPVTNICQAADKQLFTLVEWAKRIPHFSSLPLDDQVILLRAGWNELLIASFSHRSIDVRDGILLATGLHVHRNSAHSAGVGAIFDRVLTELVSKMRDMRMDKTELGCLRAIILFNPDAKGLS
In short: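 CHO clone stably expressing GAL4 DBD-CfEcR(DEF) and VP16AD-HsRXRβ/LmUSP EF chimera plus a 5XGAL4RE-luciferase reporter; ligands given at 8 concentrations (33 μM to 0.01 μM), luminescence read 48 h after treatment. Fold induction versus DMSO cells; BC50 from three-parameter logistic fit.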

[2] = biological target: T2, GAL4 DBD-CfEcR(DEF)/VP16AD-MmRXRE (Choristoneura fumiferana, UniProt O77240); assay: cell-based; conditions: for fold induction at 33 µM: CHO, read-out: Fold Induction Average, 13B3 Assay (33 μM); for 13B3 Rel Max FI: maximum fold induction at any concentration relative to that of GS-E ligand
T2 sequence (O77240 1-513): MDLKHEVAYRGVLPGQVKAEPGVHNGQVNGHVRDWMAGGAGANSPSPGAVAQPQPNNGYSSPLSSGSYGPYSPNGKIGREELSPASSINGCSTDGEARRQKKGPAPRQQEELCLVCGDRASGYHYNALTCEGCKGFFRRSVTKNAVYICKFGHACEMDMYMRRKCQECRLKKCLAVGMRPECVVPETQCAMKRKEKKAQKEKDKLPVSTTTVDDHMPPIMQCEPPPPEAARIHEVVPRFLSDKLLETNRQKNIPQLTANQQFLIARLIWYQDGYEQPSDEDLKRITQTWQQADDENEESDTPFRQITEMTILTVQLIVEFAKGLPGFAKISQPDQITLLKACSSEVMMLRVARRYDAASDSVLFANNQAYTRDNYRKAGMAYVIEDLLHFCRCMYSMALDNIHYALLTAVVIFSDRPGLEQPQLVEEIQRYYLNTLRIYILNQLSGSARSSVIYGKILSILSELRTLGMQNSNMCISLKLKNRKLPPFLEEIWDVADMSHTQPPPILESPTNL
In short: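 Stable CHO clone 13B3 expressing GAL4 DBD-CfEcR(DEF) and VP16AD-mouse RXR(DE) with GAL4 RE-luciferase reporter. Ligands tested at 8 concentrations, 33–0.01 μM; luciferase read 48 h after treatment. Fold induction versus DMSO; BC50 from three-parameter logistic fit.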

| Compound | Fold Induction Average, 27-63 Assay (33 μM) [1] | 27-63 Rel Max FI [1] | CC50 [1] | EC50 [2] | fold induction at 33 µM [2] | 13B3 Rel Max FI [2] | fold induction at 33 µM [1] |
| --- | --- | --- | --- | --- | --- | --- | --- |
| CCOC(=O)C(=O)N1CCCC(NC(=O)c2cccc(OC)c2C)(C(=O)c2cc(C)cc(C)c2)C1 (racemic) [Example 154] | 2 | – | – | – | – | – | – |
| COC(=O)CN1CCCC(NC(=O)c2cccc(OC)c2C)(C(=O)c2cc(C)cc(C)c2)C1 (racemic) [Example 156] | 3 | 0.00 | > 33 µM | – | – | – | – |
| COc1cccc(C(=O)C2(NC(=O)c3cccc(OC)c3C)CCCCC2)c1 [Example 4] | – | 1.06 | 4.28 µM | 3.46 µM | 45 | 0.64 | – |
| COc1cccc(C(=O)NC2(C(=O)c3cccc(C)c3)CCCCC2)c1C [Example 7] | – | 0.77 | 3.52 µM | 6.73 µM | 3100 | 0.55 | – |
| COc1cccc(C(=O)NC2(C(=O)c3cc(C)cc(C)c3)CCCC2)c1C [Example 10] | – | 0.86 | 1.91 µM | 3.27 µM | 32700 | 0.71 | – |
| COc1cccc(C(=O)NC2(C(=O)c3cc(C)cc(C)c3)CCCCC2)c1C [Example 11] | – | 0.97 | 1.43 µM | 1.8 µM | 94700 | 1.15 | – |
| COc1cccc(C(=O)NC(C)(Cc2ccccc2)C(=O)c2cc(C)cc(C)c2)c1C (stereo not drawn) [Example 12] | – | 0.00 | > 33 µM | > 33 µM | 72 | 0.00 | – |
| COc1cccc(C(=O)NC2(C(=O)c3cc(C)cc(C)c3)CC2)c1C [Example 13] | – | 0.09 | > 33 µM | > 33 µM | 3 | 0.00 | – |
| COc1cccc(C(=O)NC2(C(=O)c3cc(C)cc(C)c3)CCC2)c1C [Example 14] | – | 0.89 | ~10 µM | 6.6 µM | 1024 | 0.33 | – |
| COc1cccc(C(=O)NC2(C(=O)c3ccc(C)cc3)CCCCC2)c1C [Example 15] | – | 0.87 | 6.18 µM | 4.11 µM | 371 | 0.09 | – |
| COc1cccc(C(=O)NC2(C(=O)c3ccc(F)c(C)c3)CCCC2)c1C [Example 17] | – | 0.40 | ~5.5 µM | 4.51 µM | 1190 | 0.01 | – |
| COc1cccc(C(=O)NC2(C(=O)c3ccc(F)c(C)c3)CCCCC2)c1C [Example 18] | – | 0.53 | 3.27 µM | 3.96 µM | 50200 | 0.29 | – |
| COc1cccc(C(=O)NC(C)(C(=O)c2cc(C)cc(C)c2)C(C)C)c1C (stereo not drawn) [Example 20] | – | 0.71 | 2.56 µM | 4 µM | – | 0.92 | – |
| CCc1c(OC)cccc1C(=O)NC1(C(=O)c2ccccc2)CCCC1 [Example 21] | – | 0.09 | > 33 µM | > 33 µM | 2 | 0.00 | – |
| CCc1c(C(=O)NC2(C(=O)c3ccccc3)CCCC2)ccc2c1OCCO2 [Example 22] | – | 0.60 | 10.8 µM | > 33 µM | 4 | 0.00 | – |
| COc1cccc(C(=O)NC2(C(=O)c3cccc(C)c3)CCOCC2)c1C [Example 25] | – | 0.00 | > 33 µM | > 33 µM | 117 | 0.00 | – |
| COc1cccc(C(=O)NC2(C(=O)c3cccc(C)c3)CCSCC2)c1C [Example 26] | – | 0.83 | 11 µM | ~20 µM | – | 0.11 | – |
| COc1cccc(C(=O)NC2(C(=O)c3cc(C)cc(C)c3)CCOCC2)c1C [Example 27] | – | 0.96 | 10 µM | ~20 µM | 31600 | 0.36 | 2740 |
| COc1cccc(C(=O)NC2(C(=O)c3cc(C)cc(C)c3)CCSCC2)c1C [Example 28] | – | 0.85 | 1.8 µM | 3.25 µM | 3180 | 0.74 | – |
| COc1cccc(C(=O)NC2(C(=O)c3cc(C)cc(C)c3)CCC3(CC2)OCCO3)c1C [Example 29] | – | 0.00 | > 33 µM | > 33 µM | 5 | 0.00 | – |

| Compound | Fold Induction Average, 27-63 Assay (33 μM) [1] | 27-63 Rel Max FI [1] | CC50 [1] | EC50 [2] | fold induction at 33 µM [2] | 13B3 Rel Max FI [2] | fold induction at 33 µM [1] |
| --- | --- | --- | --- | --- | --- | --- | --- |
| COc1ccccc1C(=O)C(C)(NC(=O)c1cccc(OC)c1C)C(C)C (stereo not drawn) [Example 30] | – | 0.03 | > 33 µM | > 33 µM | 133 | 0.00 | – |
| COc1cccc(C(=O)NC(C)(C(=O)c2cccc(C)c2)C(C)C)c1C (stereo not drawn) [Example 31] | – | 0.61 | ~15 µM | > 33 µM | 1000 | 0.08 | – |
| COc1cccc(C(=O)C(C)(NC(=O)c2cccc(OC)c2C)C(C)C)c1 (stereo not drawn) [Example 32] | – | 0.01 | > 33 µM | > 33 µM | 96 | 0.00 | – |
| COc1cccc(C(=O)NC(C)(C(=O)c2ccc(C)cc2)C(C)C)c1C (stereo not drawn) [Example 33] | – | 0.00 | > 33 µM | > 33 µM | 78 | 0.00 | – |
| COc1cccc(C(=O)NC(C)(C(=O)c2ccccc2)C(C)C)c1C (stereo not drawn) [Example 34] | – | 0.00 | > 33 µM | > 33 µM | 6 | 0.00 | – |
| COc1ccccc1C(=O)C1(NC(=O)c2cccc(OC)c2C)CCCCCC1 [Example 70] | – | 0.66 | 3.36 µM | – | – | – | – |
| COc1cccc(C(=O)NC2(C(=O)c3cc(C)cc(C)c3)CCCCCC2)c1C [Example 71] | – | 0.88 | 2.97 µM | – | – | – | – |
| COc1ccccc1C(=O)C(C)(NC(=O)c1cccc(OC)c1C)c1ccc(F)cc1 (stereo not drawn) [Example 72] | 1 | – | – | – | – | – | – |
| COc1ccccc1C(=O)C(C)(C)NC(=O)c1cccc(OC)c1C [Example 74] | 9 | – | – | – | – | – | – |
| COc1cccc(C(=O)NC(C)(C)C(=O)c2cc(C)cc(C)c2)c1C [Example 75] | – | 0.29 | 42 µM | – | – | – | – |
| COc1cccc(C(=O)NC(C)(C)C(=O)c2ccccc2)c1C [Example 76] | – | 0.00 | > 33 µM | – | – | – | – |
| CCC(CC)(NC(=O)c1cccc(OC)c1C)C(=O)c1ccc(C)cc1 [Example 77] | – | 0.00 | > 33 µM | – | – | – | – |
| CCC(CC)(NC(=O)c1cccc(OC)c1C)C(=O)c1ccccc1 [Example 78] | – | 0.41 | 6.54 µM | – | – | – | – |
| COc1cccc(C(=O)NC2(C(=O)c3ccc(C)cc3)CCCC2)c1C [Example 79] | – | 0.32 | 4.38 µM | – | – | – | – |
| O=C(NC1(C(=O)c2ccccc2)CCCC1)c1ccccc1 [Example 139] | – | 0.00 | > 33 µM | – | – | – | – |
| COc1cccc(C(=O)NC2(C(=O)c3ccccc3)CCCC2)c1 [Example 141] | – | 0.00 | > 33 µM | – | – | – | – |
| CCc1c(OC)cccc1C(=O)NC1(C(=O)c2cc(C)cc(C)c2)CCCCC1 [Example 143] | – | 0.91 | 1.5 µM | – | – | – | – |
| CCc1c(OC)cccc1C(=O)NC1(C(=O)c2cc(C)cc(C)c2)CCCC1 [Example 144] | – | 0.93 | 1.52 µM | – | – | – | – |
| COc1cccc(C(=O)NC2(C(=O)c3cc(C)cc(C)c3)CCN(C(C)=O)CC2)c1C [Example 149] | – | – | – | – | – | – | 1 |
| CCNC(=O)N1CCC(NC(=O)c2cccc(OC)c2C)(C(=O)c2cc(C)cc(C)c2)CC1 [Example 157] | 1 | – | – | – | – | – | – |
